Among the data in patent publication US20100204224A1, “AZACYCLIC COMPOUNDS AS INHIBITORS OF SENSORY NEURONE SPECIFIC SODIUM CHANNELS” (priority 2005, published 2010) are IC50 values, retold here.

pIC50: −log10 of the molar value. Counter-ions that a name gives are not always drawn.

What is called pIC50 is the negative decadic logarithm of the IC50, by convention in mol/L.

The experiment deals with T1, human Nav1.8 (hNav1.8) ion channel (Homo sapiens, UniProt Q9Y5Y9).
T1 construct: expressed in transfected cells
T1 sequence (Q9Y5Y9 whole entry): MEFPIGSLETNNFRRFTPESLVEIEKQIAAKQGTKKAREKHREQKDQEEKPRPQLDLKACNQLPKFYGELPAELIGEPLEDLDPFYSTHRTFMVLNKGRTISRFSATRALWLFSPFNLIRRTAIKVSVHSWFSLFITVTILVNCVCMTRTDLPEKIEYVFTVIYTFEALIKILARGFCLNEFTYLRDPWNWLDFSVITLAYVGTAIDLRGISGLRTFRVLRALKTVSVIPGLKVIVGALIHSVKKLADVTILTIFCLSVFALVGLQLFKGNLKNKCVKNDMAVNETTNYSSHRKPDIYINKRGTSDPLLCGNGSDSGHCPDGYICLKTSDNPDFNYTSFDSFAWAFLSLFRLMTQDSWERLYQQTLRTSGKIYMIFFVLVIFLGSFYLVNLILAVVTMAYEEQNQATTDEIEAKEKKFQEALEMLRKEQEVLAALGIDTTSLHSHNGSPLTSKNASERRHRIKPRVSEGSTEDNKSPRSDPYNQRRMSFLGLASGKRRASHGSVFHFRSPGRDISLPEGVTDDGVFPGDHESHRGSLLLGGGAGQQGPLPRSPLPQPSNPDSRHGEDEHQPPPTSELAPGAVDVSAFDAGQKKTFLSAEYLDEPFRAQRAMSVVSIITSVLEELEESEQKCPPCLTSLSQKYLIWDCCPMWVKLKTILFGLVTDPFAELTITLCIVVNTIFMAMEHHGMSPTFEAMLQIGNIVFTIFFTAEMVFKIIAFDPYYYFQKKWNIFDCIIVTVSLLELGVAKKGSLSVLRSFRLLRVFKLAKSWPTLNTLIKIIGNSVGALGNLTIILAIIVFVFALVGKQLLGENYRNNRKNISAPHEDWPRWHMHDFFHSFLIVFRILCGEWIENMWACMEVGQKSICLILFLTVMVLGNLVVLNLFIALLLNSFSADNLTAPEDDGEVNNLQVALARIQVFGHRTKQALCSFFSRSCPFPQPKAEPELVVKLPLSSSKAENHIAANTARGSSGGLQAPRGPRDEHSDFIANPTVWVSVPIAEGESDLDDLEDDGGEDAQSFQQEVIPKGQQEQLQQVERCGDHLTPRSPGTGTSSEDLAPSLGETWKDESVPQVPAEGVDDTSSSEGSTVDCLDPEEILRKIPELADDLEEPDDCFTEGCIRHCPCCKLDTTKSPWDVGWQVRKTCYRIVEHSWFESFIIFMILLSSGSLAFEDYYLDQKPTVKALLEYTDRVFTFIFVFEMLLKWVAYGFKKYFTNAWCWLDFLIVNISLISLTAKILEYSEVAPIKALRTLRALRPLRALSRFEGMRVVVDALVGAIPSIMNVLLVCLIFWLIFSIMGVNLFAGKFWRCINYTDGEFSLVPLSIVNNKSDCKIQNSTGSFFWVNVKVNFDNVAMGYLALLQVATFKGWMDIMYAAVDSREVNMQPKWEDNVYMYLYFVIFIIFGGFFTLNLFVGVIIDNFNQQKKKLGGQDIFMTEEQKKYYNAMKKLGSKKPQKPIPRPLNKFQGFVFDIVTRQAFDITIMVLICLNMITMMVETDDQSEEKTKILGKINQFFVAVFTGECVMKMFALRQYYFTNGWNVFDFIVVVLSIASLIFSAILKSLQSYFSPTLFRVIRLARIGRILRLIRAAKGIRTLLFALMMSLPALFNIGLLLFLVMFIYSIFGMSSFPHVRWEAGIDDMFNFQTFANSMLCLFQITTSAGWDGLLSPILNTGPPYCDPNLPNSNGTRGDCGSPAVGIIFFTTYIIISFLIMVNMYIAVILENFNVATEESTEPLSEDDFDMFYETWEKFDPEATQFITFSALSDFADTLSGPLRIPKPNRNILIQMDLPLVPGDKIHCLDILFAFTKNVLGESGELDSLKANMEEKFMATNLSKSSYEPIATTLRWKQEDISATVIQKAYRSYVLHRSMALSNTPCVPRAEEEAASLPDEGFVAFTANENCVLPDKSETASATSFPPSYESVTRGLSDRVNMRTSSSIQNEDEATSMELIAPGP
As to the kind of experiment: Inhibition of human Nav1.8 stably expressed in SH-SY-5Y cells (membrane potential dye fluorescence assay). It is filed as cell-based. Conditions: SH-SY-5Y hNav1.8 cells; FLIPR membrane potential dye; 10 μM pyrethroid, 250 nM TTX; test concentration range 100 μM-0.05 μM; read-out: hNav1.8 IC50.
Consider `O=C(Nc1ccc(C(F)(F)F)cc1)N1CC2CC1CN2C1CCc2cc(F)ccc2C1` (centres unmarked) [Example 100, 5-(6-Fluoro-1,2,3,4-tetrahydro-naphthalen-2-yl)-2,5-diaza-bicyclo[2.2.1]heptane-2-carboxylic acid (4-trifluoromethyl-phenyl)-amide], for which the negative logarithm of the IC50 (pIC50) is 6.19.

For `O=C(Nc1ccc(Oc2ccc(F)cc2)cc1)N1CC2CC1CN2C1CCc2ccccc2C1` (centres unmarked) [Example 101, 5-(1,2,3,4-Tetrahydro-naphthalen-2-yl)-2,5-diaza-bicyclo[2.2.1]heptane-2-carboxylic acid [4-(4-fluoro-phenoxy)-phenyl]-amide methanesulfonate salt], the pIC50 was 6.47.

For `O=C(Nc1ccc(Oc2ccc(F)cc2)cc1)N1CC2CC1CN2C1CCc2cc(F)ccc2C1` (centres unmarked) [Example 102, 5-(6-Fluoro-1,2,3,4-tetrahydro-naphthalen-2-yl)-2,5-diaza-bicyclo[2.2.1]heptane-2-carboxylic acid [4-(4-fluoro-phenoxy)-phenyl]-amide], the pIC50 is 6.15.

In the case of `O=C(Nc1ccc(Oc2ccc(F)cc2)cc1)N1CCC2(CCN(Cc3ccccc3)C2)C1` (centres unmarked) [Example 103, 7-Benzyl-2,7-diaza-spiro[4.4]nonane-2-carboxylic acid [4-(4-fluoro-phenoxy)-phenyl]-amide], the pIC50 is 6.41.

Take `O=C(Nc1ccc(Oc2ccc(F)cc2)cc1)N1CCC2(CCN(C3Cc4ccccc4C3)C2)C1` (centres unmarked) [Example 104, 7-Indan-2-yl-2,7-diaza-spiro[4.4]nonane-2-carboxylic acid [4-(4-fluoro-phenoxy)-phenyl]-amide]: the pIC50 is 6.37.

As to `O=C(Nc1ccc(Oc2ccccc2)cc1)N1CC2CC1CN2C1Cc2ccccc2C1` (centres unmarked) [Example 105, 5-Indan-2-yl-2,5-diaza-bicyclo[2.2.1]heptane-2-carboxylic acid (4-phenoxy-phenyl)-amide], the pIC50 is 6.70.

For `O=C(Nc1ccc(Oc2ccc(F)cc2)cc1)N1CC2CC1CN2C1Cc2ccccc2C1` (centres unmarked) [Example 106, 5-Indan-2-yl-2,5-diaza-bicyclo[2.2.1]heptane-2-carboxylic acid [4-(4-fluoro-phenoxy)-phenyl]-amide], the pIC50 was 6.77.

Turning to `CC(c1ccccc1Cl)N1CC2CN(C(=O)Nc3ccc(Oc4ccc(F)cc4)cc3)CC2C1` (centres unmarked) [Example 107, 5-[1-(2-Chloro-phenyl)-ethyl]-hexahydro-pyrrolo[3,4-c]pyrrole-2-carboxylic acid [4-(4-fluoro-phenoxy)-phenyl]-amide], the negative-log IC50 (pIC50) is 5.95.

Turning to `CC(c1ccccc1Cl)N1CC2CC1CN2C(=O)Nc1ccc(Oc2cccc(F)c2)cc1` (centres unmarked) [Example 108, 5-[1-(2-Chloro-phenyl)-ethyl]-2,5-diaza-bicyclo[2.2.1]heptane-2-carboxylic acid [4-(3-fluoro-phenoxy)-phenyl]-amide], the negative-log IC50 (pIC50) was 6.22.

For `CC(c1ccccc1Cl)N1CC2CC1CN2C(=O)Nc1ccc(Oc2ccccc2F)cc1` (centres unmarked) [Example 109, 5-[1-(2-Chloro-phenyl)-ethyl]-2,5-diaza-bicyclo[2.2.1]heptane-2-carboxylic acid [4-(2-fluoro-phenoxy)-phenyl]-amide], the pIC50 was 6.17.

With `CC(c1ccccc1Cl)N1CC2CC1CN2C(=O)Nc1ccc(Oc2ccc(F)cc2)c(F)c1` (centres unmarked) [Example 110, 5-[1-(2-Chloro-phenyl)-ethyl]-2,5-diaza-bicyclo[2.2.1]heptane-2-carboxylic acid [3-fluoro-4-(4-fluoro-phenoxy)-phenyl]-amide], the pIC50 was 6.68.

`CC(c1ccccc1Cl)N1CCC2(CCN(C(=O)Nc3ccc(Oc4ccc(F)cc4)cc3)C2)C1` (centres unmarked) [Example 111, 7-[1-(2-Chloro-phenyl)-ethyl]-2,7-diaza-spiro[4.4]nonane-2-carboxylic acid [4-(4-fluoro-phenoxy)-phenyl]-amide]: the pIC50 was 6.42.

Regarding `O=C(Nc1ccc(Oc2ccc(F)cc2)cc1)N1CC2CN(C3Cc4ccccc4C3)CC2C1` (centres unmarked) [Example 112, 5-Indan-2-yl-hexahydro-pyrrolo[3,4-c]pyrrole-2-carboxylic acid [4-(4-fluoro-phenoxy)-phenyl]-amide], the negative logarithm of the IC50 (pIC50) is 6.52.

Turning to `O=C(Nc1ccc(Oc2ccccc2F)cc1)N1CC2CC1CN2C1Cc2ccccc2C1` (centres unmarked) [Example 113, 5-Indan-2-yl-2,5-diaza-bicyclo[2.2.1]heptane-2-carboxylic acid [4-(2-fluoro-phenoxy)-phenyl]-amide], the pIC50 was 6.27.

Regarding `O=C(Nc1ccc(Oc2cccc(F)c2)cc1)N1CC2CC1CN2C1Cc2ccccc2C1` (centres unmarked) [Example 114, 5-Indan-2-yl-2,5-diaza-bicyclo[2.2.1]heptane-2-carboxylic acid [4-(3-fluoro-phenoxy)-phenyl]-amide], the negative logarithm of the IC50 (pIC50) was 7.10.

As for `CC(c1ccccc1Cl)N1CC2CC1CN2C(=O)N(C)c1ccc(Oc2ccc(F)cc2)cc1` (centres unmarked) [Example 115, 5-[1-(2-Chloro-phenyl)-ethyl]-2,5-diaza-bicyclo[2.2.1]heptane-2-carboxylic acid [4-(4-fluoro-phenoxy)-phenyl]-methyl-amide], the negative-log IC50 (pIC50) is 5.70.

On to `Cc1ccc(C(C)N2CC3CC2CN3C(=O)Nc2ccc(Oc3ccc(F)cc3)cc2)c(C)c1` (centres unmarked) [Example 116, 5-[1-(2,4-Dimethyl-phenyl)-ethyl]-2,5-diaza-bicyclo[2.2.1]heptane-2-carboxylic acid [4-(4-fluoro-phenoxy)-phenyl]-amide], for which the negative logarithm of the IC50 (pIC50) was 6.54.

For the molecule `Cc1ccc(C(C)N2CC3CC2CN3C(=O)Nc2ccc(Oc3ccc(F)cc3)cc2)c(C)c1` (centres unmarked) [Example 117, 5-[1-(2,4-Dimethyl-phenyl)-ethyl]-2,5-diaza-bicyclo[2.2.1]heptane-2-carboxylic acid [4-(4-fluoro-phenoxy)-phenyl]-amide], the negative logarithm of the IC50 (pIC50) is 6.38.

In the case of `CC(c1ccc(Cl)cc1Cl)N1CC2CC1CN2C(=O)Nc1ccc(Oc2ccc(F)cc2)cc1` (centres unmarked) [Example 118, 5-[1-(2,4-Dichloro-phenyl)-ethyl]-2,5-diaza-bicyclo[2.2.1]heptane-2-carboxylic acid [4-(4-fluoro-phenoxy)-phenyl]-amide], the negative logarithm of the IC50 (pIC50) is 4.75.

For the molecule `CC(c1ccc(Cl)cc1Cl)N1CC2CC1CN2C(=O)Nc1ccc(Oc2ccc(F)cc2)cc1` (centres unmarked) [Example 119, 5-[1-(2,4-Dichloro-phenyl)-ethyl]-2,5-diaza-bicyclo[2.2.1]heptane-2-carboxylic acid [4-(4-fluoro-phenoxy)-phenyl]-amide], the negative-log IC50 (pIC50) is 4.68.

As to `CC(c1ccc(Cl)cc1Cl)N1CC2CC1CN2C(=O)Nc1ccc(C(F)(F)F)cc1` (centres unmarked) [Example 120, 5-[1-(2,4-Dichloro-phenyl)-ethyl]-2,5-diaza-bicyclo[2.2.1]heptane-2-carboxylic acid (4-trifluoromethyl-phenyl)-amide], the pIC50 is 4.61.

With `CC(c1ccc(Cl)cc1Cl)N1CC2CC1CN2C(=O)Nc1ccc(Oc2ccc(Cl)cc2)cc1` (centres unmarked) [Example 121, 5-[1-(2,4-Dichloro-phenyl)-ethyl]-2,5-diaza-bicyclo[2.2.1]heptane-2-carboxylic acid [4-(4-chloro-phenoxy)-phenyl]-amide], the negative logarithm of the IC50 (pIC50) was 4.65.

For the molecule `CC(c1ccc(Cl)cc1Cl)N1CC2CC1CN2C(=O)Nc1ccc(Oc2ccc(Cl)cc2)cc1` (centres unmarked) [Example 122, 5-[1-(2,4-Dichloro-phenyl)-ethyl]-2,5-diaza-bicyclo[2.2.1]heptane-2-carboxylic acid [4-(4-chloro-phenoxy)-phenyl]-amide], the pIC50 was 4.72.

As for `Cc1ccc(Oc2ccc(NC(=O)N3CC4CC3CN4C(C)c3ccc(Cl)cc3Cl)cc2)cc1` (centres unmarked) [Example 123, 5-[1-(2,4-Dichloro-phenyl)-ethyl]-2,5-diaza-bicyclo[2.2.1]heptane-2-carboxylic acid (4-p-tolyloxy-phenyl)-amide], the negative-log IC50 (pIC50) is 4.68.

`O=C(Nc1ccc(Cc2ccccc2)cc1)N1CC2CC1CN2C1Cc2ccc(F)cc2C1` (centres unmarked) [Example 124, 5-(5-Fluoro-indan-2-yl)-2,5-diaza-bicyclo[2.2.1]heptane-2-carboxylic acid (4-benzyl-phenyl)-amide]: the pIC50 was 6.19.

With `O=C(Nc1ccc(Oc2ccccc2)cc1)N1CC2CC1CN2C1Cc2ccc(F)cc2C1` (centres unmarked) [Example 125, 5-(5-Fluoro-indan-2-yl)-2,5-diaza-bicyclo[2.2.1]heptane-2-carboxylic acid (4-phenoxy-phenyl)-amide], the negative logarithm of the IC50 (pIC50) is 6.11.

Consider `CC(c1ccc(Cl)cc1Cl)N1CC2CC1CN2C(=O)Nc1ccc(C(F)(F)F)cc1` (centres unmarked) [Example 126, 5-[1-(2,4-Dichloro-phenyl)-ethyl]-2,5-diaza-bicyclo[2.2.1]heptane-2-carboxylic acid (4-trifluoromethyl-phenyl)-amide], for which the pIC50 is 4.64.

For `Cc1ccc(Oc2ccc(NC(=O)N3CC4CC3CN4C(C)c3ccc(Cl)cc3Cl)cc2)cc1` (centres unmarked) [Example 127, 5-[1-(2,4-Dichloro-phenyl)-ethyl]-2,5-diaza-bicyclo[2.2.1]heptane-2-carboxylic acid (4-p-tolyloxy-phenyl)-amide], the pIC50 was 4.66.

As for `CC(c1ccccc1Cl)N1CC2CC1CN2C(=O)Nc1ccc(Oc2ccc(Cl)cc2)cc1` (centres unmarked) [Example 128, 5-[1-(2-Chloro-phenyl)-ethyl]-2,5-diaza-bicyclo[2.2.1]heptane-2-carboxylic acid [4-(4-chloro-phenoxy)-phenyl]-amide], the pIC50 was 5.85.

For `CC(c1ccccc1Cl)N1CC2CC1CN2C(=O)Nc1ccc(Oc2ccc(Cl)cc2)cc1` (centres unmarked) [Example 129, 5-[1-(2-Chloro-phenyl)-ethyl]-2,5-diaza-bicyclo[2.2.1]heptane-2-carboxylic acid [4-(4-chloro-phenoxy)-phenyl]-amide], the pIC50 was 5.42.

For `O=C(Nc1ccc(C(F)(F)F)cc1)N1CC2CC1CN2C1Cc2ccc(F)cc2C1` (centres unmarked) [Example 130, 5-(5-Fluoro-indan-2-yl)-2,5-diaza-bicyclo[2.2.1]heptane-2-carboxylic acid (4-trifluoromethyl-phenyl)-amide], the negative logarithm of the IC50 (pIC50) is 5.44.

Turning to `O=C(Nc1ccc(Oc2ccc(F)cc2)cc1)N1CC2CC1CN2C1Cc2ccc(F)cc2C1` (centres unmarked) [Example 131, 5-(5-Fluoro-indan-2-yl)-2,5-diaza-bicyclo[2.2.1]heptane-2-carboxylic acid [4-(4-fluoro-phenoxy)-phenyl]-amide], the negative logarithm of the IC50 (pIC50) is 6.26.
